Measurements taken from the supplement of paper PMC10307832.

Key:
Assay in all cases: relative viability (nuclei count vs DMSO), 5 days (fraction); higher = more cells survive
[1] = system: 201T
In short: (§1)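 Lung cancer cell lines were seeded in 1536-well plates and dosed by pin tool the next day, with either a single drug or a fixed anchor-drug dose combined with five library-drug doses (not always all listed) spaced in √10 steps. Five days later, one step fixed the cells and stained their nuclei (final 0.05% Triton X-100, 1% formaldehyde, 1 ug/ml Hoechst), and nuclei were counted on 4× images. Relative viability is the nuclei count in treated wells divided by the count in vehicle wells, and each value is the median of duplicate plates.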

[2] = system: ABC-1
In short: as §1

[3] = system: BEN
In short: as §1

[4] = system: CAL-12T
In short: as §1

[5] = system: H3255
In short: as §1

[6] = system: HARA
In short: as §1

[7] = system: HCC-15
In short: as §1

[8] = system: HCC-827
In short: as §1

[9] = system: LC-2-ad
In short: as §1

[10] = system: LCLC-103H
In short: as §1

[11] = system: LOU-NH91
In short: as §1

[12] = system: LU99A
In short: as §1

[13] = system: NCI-H1355
In short: as §1

[14] = system: NCI-H1666
In short: as §1

[15] = system: NCI-H1755
In short: as §1

[16] = system: NCI-H1993
In short: as §1

[17] = system: NCI-H2085
In short: as §1

[18] = system: NCI-H2170
In short: as §1

[19] = system: NCI-H2228
In short: as §1

[20] = system: NCI-H2342
In short: as §1

[21] = system: NCI-H23
In short: as §1

[22] = system: NCI-H727
In short: as §1

[23] = system: PC-3 [JPC-3]
In short: as §1

[24] = system: RERF-LC-KJ
In short: as §1

[25] = system: SK-LU-1
In short: as §1

With `Nc1cccc2c1CN(C1CCC(=O)NC1=O)C2=O` (stereo not given) [Lenalidomide] + Cc1nc(Nc2ncc(C(=O)Nc3c(C)cccc3Cl)s2)cc(N2CCN(CCO)CC2)n1 [Dasatinib] (partner 0.075 µM) the relative viability ([1]; first compound 0.253 µM) was 0.598, the relative viability ([1]; first compound 2.53 µM) was 0.581 and the relative viability ([1]; first compound 8 µM) was 0.538. It also gave a relative viability ([2]; first compound 0.253 µM) of 0.591, a relative viability ([2]; first compound 0.8 µM) of 0.482 and a relative viability ([2]; first compound 2.53 µM) of 0.602. It also gave a relative viability ([2]; first compound 8 µM) of 0.55, a relative viability ([3]; first compound 0.253 µM) of 0.385 and a relative viability ([3]; first compound 0.8 µM) of 0.258. For the same molecule, the relative viability ([3]; first compound 2.53 µM) was 0.293, the relative viability ([3]; first compound 8 µM) was 0.241 and the relative viability ([4]; first compound 0.253 µM) was 0.262. For the same molecule, the relative viability ([4]; first compound 0.8 µM) was 0.345, the relative viability ([4]; first compound 2.53 µM) was 0.397 and the relative viability ([4]; first compound 8 µM) was 0.368. The relative viability ([5]; first compound 0.253 µM) was 0.365, the relative viability ([5]; first compound 0.8 µM) was 0.32 and the relative viability ([5]; first compound 2.53 µM) was 0.34. The relative viability ([5]; first compound 8 µM) was 0.301, the relative viability ([6]; first compound 0.253 µM) was 0.3 and the relative viability ([6]; first compound 2.53 µM) was 0.293. The relative viability ([6]; first compound 8 µM) was 0.287, the relative viability ([7]; first compound 0.253 µM) was 0.629 and the relative viability ([7]; first compound 0.8 µM) was 0.526. It also gave a relative viability ([7]; first compound 2.53 µM) of 0.816, a relative viability ([7]; first compound 8 µM) of 0.527 and a relative viability ([8]; first compound 0.253 µM) of 0.291. The relative viability ([8]; first compound 0.8 µM) was 0.416, the relative viability ([8]; first compound 2.53 µM) was 0.341 and the relative viability ([8]; first compound 8 µM) was 0.312. For the same molecule, the relative viability ([9]; first compound 0.253 µM) was 0.49, the relative viability ([9]; first compound 2.53 µM) was 0.727 and the relative viability ([9]; first compound 8 µM) was 0.395. It also gave a relative viability ([10]; first compound 0.253 µM) of 0.442, a relative viability ([10]; first compound 0.8 µM) of 0.325 and a relative viability ([10]; first compound 2.53 µM) of 0.453. The relative viability ([10]; first compound 8 µM) was 0.296, the relative viability ([11]; first compound 0.253 µM) was 0.558 and the relative viability ([11]; first compound 0.8 µM) was 0.435. For the same molecule, the relative viability ([11]; first compound 2.53 µM) was 0.555, the relative viability ([11]; first compound 8 µM) was 0.456 and the relative viability ([12]; first compound 0.253 µM) was 0.473. For the same molecule, the relative viability ([12]; first compound 0.8 µM) was 0.471, the relative viability ([12]; first compound 2.53 µM) was 0.54 and the relative viability ([12]; first compound 8 µM) was 0.308. It also gave a relative viability ([13]; first compound 0.253 µM) of 0.701, a relative viability ([13]; first compound 2.53 µM) of 0.744 and a relative viability ([13]; first compound 8 µM) of 0.403. For the same molecule, the relative viability ([14]; first compound 0.253 µM) was 0.858, the relative viability ([14]; first compound 2.53 µM) was 0.849 and the relative viability ([14]; first compound 8 µM) was 0.783. The relative viability ([15]; first compound 0.253 µM) was 0.404, the relative viability ([15]; first compound 0.8 µM) was 0.216 and the relative viability ([15]; first compound 2.53 µM) was 0.428. The relative viability ([15]; first compound 8 µM) was 0.33, the relative viability ([16]; first compound 0.253 µM) was 0.498 and the relative viability ([16]; first compound 0.8 µM) was 0.583. The relative viability ([16]; first compound 2.53 µM) was 0.609, the relative viability ([16]; first compound 8 µM) was 0.443 and the relative viability ([17]; first compound 0.253 µM) was 0.253. It also gave a relative viability ([17]; first compound 0.8 µM) of 0.259, a relative viability ([17]; first compound 2.53 µM) of 0.243 and a relative viability ([17]; first compound 8 µM) of 0.214. For the same molecule, the relative viability ([18]; first compound 0.253 µM) was 0.547, the relative viability ([18]; first compound 0.8 µM) was 0.47 and the relative viability ([18]; first compound 2.53 µM) was 0.571. The relative viability ([18]; first compound 8 µM) was 0.454, the relative viability ([19]; first compound 0.253 µM) was 0.444 and the relative viability ([19]; first compound 0.8 µM) was 0.58. For the same molecule, the relative viability ([19]; first compound 2.53 µM) was 0.562, the relative viability ([19]; first compound 8 µM) was 0.405 and the relative viability ([20]; first compound 0.253 µM) was 0.312. It also gave a relative viability ([20]; first compound 0.8 µM) of 0.305, a relative viability ([20]; first compound 2.53 µM) of 0.322 and a relative viability ([20]; first compound 8 µM) of 0.3. The relative viability ([21]; first compound 0.253 µM) was 0.857, the relative viability ([21]; first compound 0.8 µM) was 0.543 and the relative viability ([21]; first compound 2.53 µM) was 0.97. The relative viability ([21]; first compound 8 µM) was 0.687, the relative viability ([22]; first compound 0.253 µM) was 0.357 and the relative viability ([22]; first compound 0.8 µM) was 0.326. The relative viability ([22]; first compound 2.53 µM) was 0.335, the relative viability ([22]; first compound 8 µM) was 0.384 and the relative viability ([23]; first compound 0.253 µM) was 1. It also gave a relative viability ([23]; first compound 0.8 µM) of 0.901, a relative viability ([23]; first compound 2.53 µM) of 1.08 and a relative viability ([23]; first compound 8 µM) of 1.04. For the same molecule, the relative viability ([24]; first compound 0.253 µM) was 0.777, the relative viability ([24]; first compound 0.8 µM) was 0.746 and the relative viability ([24]; first compound 2.53 µM) was 0.828. It also gave a relative viability ([24]; first compound 8 µM) of 0.793, a relative viability ([25]; first compound 0.253 µM) of 0.175 and a relative viability ([25]; first compound 0.8 µM) of 0.206. It also gave a relative viability ([25]; first compound 2.53 µM) of 0.178 and a relative viability ([25]; first compound 8 µM) of 0.143.
